Viability data for 83 molecules are collected here from publication PMC12040169 (PLOS Biology, 2025).

A short description of this series: in vitro. Particulars: human, hela cells, % viability.

`CC(=O)NC(Cc1c[nH]c2ccccc12)/C(C)=N/O` (centres unmarked) [CBK022711]: the viability at 28.5 h, 10 µM was found to be 120%. Regarding `CCOC(=O)c1cnc(SC(C)C(=O)N2CCc3ccccc32)nc1N` (centres unmarked) [CBK305007], the viability at 28.5 h, 10 µM was 86.9%. Next, `COc1ccc(S(=O)(=O)N2CCN(Cc3ccc4c(c3)OCO4)CC2)c2ccccc12` [CBK074521]: 96.4%; `CCOc1ccccc1C(=O)Nc1ccc(O)cc1` [CBK099037]: 91.8%. Next, `CN(C)S(=O)(=O)c1cccc(C(=O)NCc2ccco2)c1` [CBK270135]: 94.7%; `CCN(CC)CCCNC(=O)N1CCCCC1CO` (centres unmarked) [CBK155982]: 97.9%; `O=C(O)/C=C/c1cccc(-c2cnc(N3CCOCC3)c3nccn23)c1` [CBK091263]: 104%. With `Cn1c(=O)c2c(nc(CN3CCN(c4ccccc4)CC3)n2Cc2ccccc2)n(C)c1=O` [CBK269557] the figure was 85.1%; with `COc1ccc2c(c1)CCCN2C(=O)c1sc2ccccc2c1Cl` [CBK056960], 90.2%. Take `Cc1nc2ccc(C(=O)NCC3CCCN(C(C)C)C3)cc2[nH]1` (centres unmarked) [CBK282475]: the viability at 28.5 h, 10 µM is 90%. With `O=C(/C=C\c1cccs1)NC(=S)Nc1ccc([N+](=O)[O-])cc1O` [CBK261231] the figure was 89.4%; with `Cc1nc(CC(=O)NC2CCCN(c3ccn(C)n3)C2=O)c(C)s1` (centres unmarked) [CBK304422], 82.8%. Next, `O=C(NCCc1ccccc1)Nc1cc2cccnc2c(Br)n1` [CBK063283]: 95.9%; `c1cnn(C2CCCN(Cc3ccc(Oc4cnccn4)cc3)C2)c1` (centres unmarked) [CBK304043]: 96.9%; `COC(=O)CC1CCC(NC(=O)C(F)(F)F)CC1` (centres unmarked) [CBK009129]: 97.4%. As for `CCN(CC)C(=O)c1ccccc1NS(=O)(=O)c1cc(Br)ccc1OC` [CBK045422], the viability at 28.5 h, 10 µM worked out at 89.6%.

In the case of `Cc1nn(C)c(C)c1OCC(=O)Nc1sc2c(c1C#N)CCC2` [CBK306374], the viability at 28.5 h, 10 µM is 79.4%. Next, `Brc1ccccc1-c1nnc2n1CCCCC2` [CBK200092]: 90.9%; `COC(=O)c1ccc(N2CCN(Cc3nnnn3C3CC3)C(C)C2)cc1` (centres unmarked) [CBK306129]: 89.6%. With `O=C(C1CC1)N1C[C@@H](c2ccccc2)[C@H](c2cc(C(F)F)[nH]n2)C1` [CBK284791] the figure was 91.1%; with `Cc1cc(=O)oc2cc(OCc3ccc(S(=O)(=O)N4CCOCC4)cc3)ccc12` [CBK267402], 91.3%; with `CC(Oc1ccccc1)C(=O)Nc1ccc(-c2csc(-c3ccccc3)n2)cc1` (centres unmarked) [CBK268855], 103%. With `Cc1cc(C(C)(C)C)cc(S(=O)(=O)Nc2ccc(C(=O)O)c(O)c2)c1C` [CBK299820], the viability at 28.5 h, 10 µM stood at 88.3%. For `COc1ccc(CCCNC(=N)N)cc1Cl` [CBK261404G], the viability at 28.5 h, 10 µM is 93.4%. For `CCCCCC(=O)Nc1ccc(S(=O)(=O)Nc2nnc(CC)s2)cc1` [CBK045478], the viability at 28.5 h, 10 µM is 89%. Consider `COc1ccc([C@@]23CCC(N)C[C@@H]2N(C)CC3)c(F)c1OC` (some centres unmarked) [CBK067416], for which the viability at 28.5 h, 10 µM was found to be 78.3%. Consider `Nc1ncc(-c2ccc(Cl)cc2)nc1-c1ccc(N2CCOCC2)cc1` [CBK063953], for which the viability at 28.5 h, 10 µM was 111%.

For the molecule `O=C(NCc1ccccn1)C1CC(=O)N(c2ccccc2)C1` (centres unmarked) [CBK270175], the viability at 28.5 h, 10 µM is 88.7%. Next, `CCC(=O)NC(c1ccc(OC)c(OC)c1)c1ccc2cccnc2c1O` (centres unmarked) [CBK293926]: 78%.

`CN1CCc2c(c(NCC3CCCO3)nc3[nH]nc(N)c23)C1` (centres unmarked) [CBK287955]: the viability at 28.5 h, 10 µM was determined as 103%.

On to `O=C(NCCc1cccs1)Nc1cccc(SC(F)(F)F)c1` [CBK044999], for which the viability at 28.5 h, 10 µM amounted to 95%. With `COc1ccc(C2(C(=O)NCc3cccs3)CC2)cc1` [CBK149831] the figure was 106%; with `CC(=O)N1CC2(CCN(C(=O)c3ccco3)CC2)Nc2ccccc21` [CBK284447], 95.5%; with `CC(O)(c1ccncc1)c1nccs1` (centres unmarked) [CBK281504], 90.1%. With `CSCCC(C(=O)O)n1c(S)nnc1-c1ccc2ccccc2n1` (centres unmarked) [CBK269230] the figure was 99.5%; with `O=C(c1ccc(F)cc1)c1ccc(CSc2nnc3sc4ccccc4n23)cc1` [CBK265553], 85.9%; with `Cc1cc(NC(=O)CCn2cc(Br)cn2)no1` [CBK304326], 102%. Next, `Cn1ccnc1C1(O)CCN(C(=O)CC2CCCCC2)CC1` [CBK283647]: 97.2%; `COc1ccccc1NC(=O)NCCC1SC(NC2CCCCCC2)=NC1=O` (centres unmarked) [CBK067473]: 91.8%. On to `CCc1ccc2c(c1)C(CCNC(=O)c1sccc1C)C(=O)N2` (centres unmarked) [CBK306459], for which the viability at 28.5 h, 10 µM is 88.5%. Next, `CCOCC1CCN(C(=O)c2ncsc2Nc2cccnc2)C1` (centres unmarked) [CBK304514]: 110%; `Cc1ccc(S(=O)(=O)N2CCCN(CC(O)c3ccccc3)CC2)cc1` (centres unmarked) [CBK297911]: 104%; `N#CCC(=O)Nc1ccc(F)c(Cl)c1` [CBK085905]: 95.4%. Next, `CS(=O)(=O)N(CC(=O)Nc1ccccc1C(F)(F)F)Cc1ccc(Cl)cc1` [CBK267854]: 108%; `O=C(NC(=S)Nn1cnnc1)c1ccccc1` [CBK028188]: 125%.

Regarding `Nc1n[nH]c(SCC(=O)N2CCN(C(c3ccccc3)c3ccccc3)CC2)n1` [CBK267893], the viability at 28.5 h, 10 µM was 86.5%. With `CCOC(=O)CN1CCN(c2nccnc2OC2CCCCC2)CC1` [CBK082837T], the viability at 28.5 h, 10 µM amounted to 102%. Next, `CC1CN(C2(n3nnc4ccccc43)CCC(C(C)(C)C)CC2)CC(C)O1` (centres unmarked) [CBK019373]: 98.5%; `Cc1nc(=O)c(-c2ccccc2)c(C)n1-c1cccc(C(=O)O)c1` [CBK286965]: 94.3%. With `CCC1c2ccsc2CCN1CC(O)COCc1ccco1` (centres unmarked) [CBK303992] the figure was 97.3%; with `Fc1ccc(-c2cncc(Nc3cccc(C(F)(F)F)c3)n2)c(F)c1` [CBK065763], 92.5%. With `N#Cc1c(Oc2cccc3cccnc23)cccc1C(F)(F)F` [CBK002728] the figure was 105%; with `CC(NC(=O)C1CC(=O)N(Cc2ccccn2)C1)c1ccc(F)cc1` (centres unmarked) [CBK304552], 97.1%; with `C[C@@H](Nc1cncc(-c2ccncc2)n1)c1ccccc1` [CBK066055], 90%. As to `O=C(NCCCc1ccccn1)c1cc2ccc(F)cc2[nH]1` [CBK283211], the viability at 28.5 h, 10 µM stood at 84.4%. With `COc1cc(C(=O)N2CCN(C(=O)CC(C)C)CC2)cc(OC)c1OC` [CBK003604] the figure was 99.2%. With `Cc1ccc(C)c(S(=O)(=O)Nc2ccc(O)c(Sc3nnc[nH]3)c2)c1` [CBK266894] the figure was 95.2%; with `CC(C)CC(=O)Nc1ccc2nc(SCC(=O)O)sc2c1` [CBK299801], 96.4%. With `Cc1nc(CC(=O)NC(Cc2ccsc2)c2cccnc2)cs1` (centres unmarked) [CBK285389] the figure was 110%; with `CS(=O)(=O)Nc1cc2ccccc2c(-c2cccc(C(F)(F)F)c2)n1` [CBK085754], 92.9%; with `COCc1cccc(-c2nccnc2OCc2ccccn2)c1` [CBK106953], 96%. On to `OC(COc1cccc2c1CCCC2)CN1CCC(O)(c2ccccc2)CC1` (centres unmarked) [CBK003585], for which the viability at 28.5 h, 10 µM was 87.3%. Turning to `CC(=O)Nc1ccc(S(=O)(=O)Nc2ccc(C(=O)O)cc2)cc1` [CBK050427], the viability at 28.5 h, 10 µM stood at 91.3%. Next, `CCn1c(CN2CCCC2c2noc(C)n2)nc2cc(F)ccc21` (centres unmarked) [CBK305250]: 55.9%; `O=S(=O)(Cc1ccccc1)Nc1nnc(C(F)(F)F)s1` [CBK045539]: 84.8%. With `O=C(O)C(=O)c1cn(Cc2ccccc2Cl)c2ccccc12` [CBK287035] the figure was 88.8%; with `CC(NC(=O)C1(Cn2ccnc2)CC1)c1nncn1C(C)C` (centres unmarked) [CBK306682], 99.5%. With `Clc1ccc(CSc2nccnc2N2CCCC2)cc1` [CBK107177] the figure was 95.9%; with `CC(=O)Nc1nc(-c2ccc(Cl)s2)cs1` [CBK287317], 89.5%; with `COc1ccc(-n2cc(-c3ccncc3)nn2)cc1OC` [CBK113106], 109%. As to `CCCCCNC(=N)NC1Cc2ccccc2C1` [CBK036321T], the viability at 28.5 h, 10 µM came out at 98.8%. With `CCCCC(=O)N(C)c1c(CC)nc2c(OCCn3cccc3)cccn12` [CBK147785] the figure was 102%; with `CC(C)(C)CCNCCN1CCOCC1` [CBK001895], 92.2%; with `O=C(O)c1ccc(/C=N/N2CCN(Cc3ccccc3)CC2)cc1` [CBK265344], 108%. Next, `CCC(CN1CCOCC1)NC(=O)Cc1c(C)[nH]c2ccc(F)cc12` (centres unmarked) [CBK282774]: 92.6%; `CCn1nccc1C(=O)Nc1nc2ccccc2n1CCN1CCCCC1` [CBK265737]: 89.1%; `O=C(CSCc1nc2ccccc2c(=O)n1-c1ccccc1Cl)Nc1ccccc1` [CBK070895]: 95.2%. As for `CC1(C)CC(=O)c2cnc3ncnn3c2C1` [CBK007345], the viability at 28.5 h, 10 µM came out at 110%. Next, `C[S+]([O-])CC(O)(c1ccc(F)cc1)C1CC1` (centres unmarked) [CBK025846]: 114%. With `Cc1ccc(/C=C/C(=O)O)cc1S(=O)(=O)NCCO` [CBK264404] the figure was 93.2%; with `COc1cccc(CNc2ccc(N3CCCCC3)cc2)c1OCc1cccs1` [CBK074531], 96.5%; with `CC(=O)c1ccc(-c2nc(-c3ccc(Cl)cc3)cnc2N)cc1` [CBK064097], 89.6%. Next, `COc1ccc(OC)c(-n2c(C)cn3c4c(=O)[nH]c(=O)n(C)c4nc23)c1` [CBK141314]: 59.5%.

Usually viability stands for a read-out of living cells in per cent, often relative to untreated cells.
